Source: PubChem BioAssay (NCI)
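In this assay, cells in 96-well plates receive the compound at five concentrations for 48 hours. Endpoints are linearly interpolated between the surrounding concentrations. The concentration for 50% growth inhibition is given as GI50. The concentration for full growth arrest is given as TGI.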

How the values were obtained:
Test in all cases: NCI-60 cell line screen, 48 h
HT29 colon = tested on: HT29 colon
KM12 colon = tested on: KM12 colon
IGROV1 ovarian = tested on: IGROV1 ovarian
EKVX NSCLC = tested on: EKVX NSCLC
A498 renal = tested on: A498 renal
MOLT-4 leukemia = tested on: MOLT-4 leukemia
ACHN renal = tested on: ACHN renal
T-47D breast = tested on: T-47D breast
UO-31 renal = tested on: UO-31 renal
SR leukemia = tested on: SR leukemia

CN=S(=O)(C[C@]1(O)CC2OC1C1OC(C)(C)OC21)c1ccccc1 (some centres not stated) showed a TGI (HT29 colon) greater than 100 µM, a TGI (KM12 colon) greater than 100 µM and a TGI (IGROV1 ovarian) greater than 100 µM. It also gave a TGI (EKVX NSCLC) greater than 100 µM, a TGI (A498 renal) greater than 100 µM and a TGI (MOLT-4 leukemia) greater than 100 µM. The TGI (ACHN renal) was greater than 100 µM.
For NC(=O)Oc1cc(OC(N)=O)cc(N(CCCl)CCCl)c1, the GI50 (HT29 colon) was 10.8 µM, the TGI (HT29 colon) was 51.4 µM and the GI50 (KM12 colon) was 14.1 µM. The TGI (KM12 colon) was 36.7 µM, the GI50 (IGROV1 ovarian) was 6.71 µM and the TGI (IGROV1 ovarian) was 49 µM. For the same compound, the GI50 (T-47D breast) was 7.78 µM, the TGI (T-47D breast) was greater than 100 µM and the GI50 (UO-31 renal) was 2.57 µM. It also gave a TGI (UO-31 renal) of 15.9 µM, a GI50 (SR leukemia) of 1.04 µM and a TGI (SR leukemia) greater than 100 µM. The GI50 (A498 renal) was 12.4 µM, the TGI (A498 renal) was 29.3 µM and the GI50 (MOLT-4 leukemia) was 2.18 µM. For the same compound, the TGI (MOLT-4 leukemia) was greater than 100 µM.
Compound C=CCN(N=O)C(=O)N(CCC)CCCCC(NC(C)=O)C(=O)NCc1ccccc1 (configuration not stated) has a TGI (HT29 colon) of 83.6 µM, a TGI (KM12 colon) greater than 100 µM and a TGI (IGROV1 ovarian) greater than 100 µM. The TGI (EKVX NSCLC) was greater than 100 µM, the TGI (UO-31 renal) was greater than 100 µM and the TGI (A498 renal) was greater than 100 µM. The TGI (MOLT-4 leukemia) was greater than 100 µM and the TGI (ACHN renal) was greater than 100 µM.
CCOC(=O)C1=C(C)N(NC(=O)c2ccccc2)C2(O)CCCC12C(=O)OCC (configuration not stated) was tested, and the TGI (HT29 colon) was greater than 100 µM, the TGI (KM12 colon) was greater than 100 µM and the TGI (IGROV1 ovarian) was greater than 100 µM. For the same compound, the TGI (EKVX NSCLC) was greater than 100 µM, the TGI (UO-31 renal) was greater than 100 µM and the TGI (SR leukemia) was greater than 100 µM. The TGI (A498 renal) was greater than 100 µM, the TGI (MOLT-4 leukemia) was greater than 100 µM and the TGI (ACHN renal) was greater than 100 µM.
Compound CCOC(=O)/C=C1\Nc2ccccc2-n2nnnc21 has a TGI (HT29 colon) greater than 100 µM, a TGI (KM12 colon) greater than 100 µM and a TGI (IGROV1 ovarian) greater than 100 µM. The TGI (EKVX NSCLC) was greater than 100 µM, the TGI (UO-31 renal) was greater than 100 µM and the TGI (SR leukemia) was greater than 100 µM. For the same compound, the TGI (A498 renal) was greater than 100 µM, the TGI (MOLT-4 leukemia) was greater than 100 µM and the TGI (ACHN renal) was greater than 100 µM.
In the case of CCOC(=O)c1c(Cl)c2c(n1Cc1cc(OC)cc(OC)c1)-c1oncc1CCC2, the GI50 (HT29 colon) is reported as 0.314 µM, the TGI (HT29 colon) is reported as 68 µM and the GI50 (KM12 colon) is reported as 0.346 µM. For the same compound, the TGI (KM12 colon) was greater than 100 µM, the GI50 (IGROV1 ovarian) was 0.317 µM and the TGI (IGROV1 ovarian) was greater than 54.8 µM. For the same compound, the GI50 (T-47D breast) was 0.445 µM, the TGI (T-47D breast) was greater than 100 µM and the GI50 (UO-31 renal) was 1.04 µM. It also gave a TGI (UO-31 renal) greater than 100 µM, a GI50 (SR leukemia) of 0.121 µM and a TGI (SR leukemia) greater than 100 µM. For the same compound, the GI50 (A498 renal) was 0.0797 µM, the TGI (A498 renal) was 0.605 µM and the GI50 (MOLT-4 leukemia) was 0.512 µM. For the same compound, the TGI (MOLT-4 leukemia) was greater than 100 µM, the GI50 (ACHN renal) was 1.54 µM and the TGI (ACHN renal) was greater than 100 µM.
COc1ccc2c(c1)[n+]([O-])c(-c1nc3ccccc3s1)c(N)[n+]2[O-] was tested, and the TGI (HT29 colon) was greater than 100 µM, the TGI (KM12 colon) was greater than 100 µM and the TGI (IGROV1 ovarian) was greater than 100 µM. For the same compound, the TGI (EKVX NSCLC) was greater than 100 µM, the TGI (UO-31 renal) was greater than 100 µM and the TGI (SR leukemia) was greater than 100 µM. The TGI (A498 renal) was greater than 100 µM, the TGI (MOLT-4 leukemia) was greater than 100 µM and the TGI (ACHN renal) was greater than 100 µM.
Cc1ccc(S(=O)(=O)N/N=C(\C(=O)Nc2cccc([N+](=O)[O-])c2)c2nc3ccc([N+](=O)[O-])cc3[nH]c2=O)cc1 showed a TGI (HT29 colon) greater than 100 µM, a TGI (KM12 colon) greater than 100 µM and a TGI (IGROV1 ovarian) greater than 100 µM. It also gave a TGI (EKVX NSCLC) greater than 100 µM, a TGI (UO-31 renal) greater than 100 µM and a TGI (SR leukemia) greater than 100 µM. It also gave a TGI (A498 renal) greater than 100 µM, a TGI (MOLT-4 leukemia) greater than 100 µM and a TGI (ACHN renal) greater than 100 µM.
With Cn1c2cccc3nnc4cccc(c4c32)n1C the TGI (HT29 colon) was greater than 100 µM, the TGI (KM12 colon) was greater than 100 µM and the TGI (IGROV1 ovarian) was greater than 100 µM. For the same compound, the TGI (EKVX NSCLC) was greater than 100 µM, the TGI (UO-31 renal) was greater than 100 µM and the TGI (A498 renal) was greater than 100 µM. It also gave a TGI (MOLT-4 leukemia) greater than 100 µM and a TGI (ACHN renal) greater than 100 µM.
Cc1c(CCl)c(=O)oc2c(C)c3occ(CCl)c(=O)c3cc12 was tested, and the TGI (KM12 colon) was greater than 100 µM, the TGI (IGROV1 ovarian) was 40.9 µM and the TGI (EKVX NSCLC) was greater than 100 µM. It also gave a TGI (UO-31 renal) of 31.4 µM, a TGI (A498 renal) greater than 100 µM and a TGI (MOLT-4 leukemia) of 22.8 µM. For the same compound, the TGI (ACHN renal) was greater than 100 µM.
O=C(CC1(O)C(=O)Nc2c(Cl)cc(Cl)cc21)c1ccc2ccccc2c1 (configuration not stated) was tested, and the TGI (HT29 colon) was 18.5 µM, the TGI (KM12 colon) was 18.8 µM and the TGI (IGROV1 ovarian) was 23.1 µM. The TGI (EKVX NSCLC) was 23.4 µM, the TGI (UO-31 renal) was 24.5 µM and the TGI (A498 renal) was 24.8 µM. The TGI (MOLT-4 leukemia) was 27.8 µM and the TGI (ACHN renal) was 28.7 µM.
Compound CCN(CC)c1ccc2c(c1)N=C1N=CC=CN1C2(c1ccc(N(C)C)cc1)c1ccc(N(C)C)cc1 has a TGI (HT29 colon) of 10.6 µM, a TGI (KM12 colon) of 15.6 µM and a TGI (IGROV1 ovarian) of 26.9 µM. The TGI (EKVX NSCLC) was 23.8 µM, the TGI (UO-31 renal) was 22 µM and the TGI (SR leukemia) was 12.9 µM. It also gave a TGI (A498 renal) of 33.3 µM, a TGI (MOLT-4 leukemia) of 6.22 µM and a TGI (ACHN renal) of 16.1 µM.
In the case of Clc1ccc2nc(CCSCCc3nc4ccc(Cl)cc4[nH]3)[nH]c2c1, the TGI (HT29 colon) is reported as 24.1 µM, the TGI (KM12 colon) is reported as 29.7 µM and the TGI (IGROV1 ovarian) is reported as 25.4 µM. For the same compound, the TGI (EKVX NSCLC) was 31.3 µM, the TGI (UO-31 renal) was 24.7 µM and the TGI (SR leukemia) was 1.14 µM. It also gave a TGI (MOLT-4 leukemia) of 18.1 µM and a TGI (ACHN renal) of 11.4 µM.
O=C(O)/C(Cl)=C(\Cl)C(=O)Nc1ccccc1 was tested, and the TGI (HT29 colon) was greater than 100 µM, the TGI (KM12 colon) was greater than 100 µM and the TGI (IGROV1 ovarian) was greater than 100 µM. It also gave a TGI (EKVX NSCLC) greater than 100 µM, a TGI (UO-31 renal) greater than 100 µM and a TGI (SR leukemia) greater than 100 µM. It also gave a TGI (A498 renal) greater than 100 µM, a TGI (MOLT-4 leukemia) greater than 100 µM and a TGI (ACHN renal) greater than 100 µM.
In the case of O=C(Cn1ccnc1[N+](=O)[O-])NCC(F)(F)C(F)(F)F, the GI50 (HT29 colon) is reported as greater than 100 µM, the TGI (HT29 colon) is reported as greater than 100 µM and the GI50 (KM12 colon) is reported as greater than 100 µM. It also gave a TGI (KM12 colon) greater than 100 µM, a GI50 (IGROV1 ovarian) greater than 100 µM and a TGI (IGROV1 ovarian) greater than 100 µM. It also gave a GI50 (T-47D breast) greater than 100 µM, a TGI (T-47D breast) greater than 100 µM and a GI50 (EKVX NSCLC) greater than 100 µM. The TGI (EKVX NSCLC) was greater than 100 µM, the GI50 (UO-31 renal) was greater than 100 µM and the TGI (UO-31 renal) was greater than 100 µM. The GI50 (A498 renal) was greater than 100 µM, the TGI (A498 renal) was greater than 100 µM and the GI50 (ACHN renal) was greater than 100 µM. It also gave a TGI (ACHN renal) greater than 100 µM.
CCOC(=O)c1cc2ncccc2c2ccccc12 was tested, and the TGI (HT29 colon) was greater than 100 µM, the TGI (KM12 colon) was greater than 100 µM and the TGI (IGROV1 ovarian) was greater than 100 µM. The TGI (T-47D breast) was greater than 100 µM, the TGI (EKVX NSCLC) was greater than 100 µM and the TGI (UO-31 renal) was greater than 100 µM. For the same compound, the TGI (SR leukemia) was greater than 100 µM, the TGI (MOLT-4 leukemia) was greater than 100 µM and the TGI (ACHN renal) was greater than 100 µM.
Compound CC12CC3CC(C)(C1)CC(N=[N+]=[N-])(C3)C2 has a TGI (HT29 colon) greater than 100 µM, a TGI (KM12 colon) greater than 100 µM and a TGI (IGROV1 ovarian) greater than 100 µM. It also gave a TGI (EKVX NSCLC) greater than 100 µM, a TGI (UO-31 renal) greater than 100 µM and a TGI (SR leukemia) greater than 100 µM. It also gave a TGI (A498 renal) greater than 100 µM, a TGI (MOLT-4 leukemia) greater than 100 µM and a TGI (ACHN renal) greater than 100 µM.
O=C(NCC#CCO)C(F)(F)F showed a TGI (HT29 colon) greater than 100 µM, a TGI (KM12 colon) greater than 100 µM and a TGI (IGROV1 ovarian) greater than 100 µM. The TGI (EKVX NSCLC) was greater than 100 µM, the TGI (UO-31 renal) was greater than 100 µM and the TGI (SR leukemia) was greater than 100 µM. The TGI (A498 renal) was greater than 100 µM, the TGI (MOLT-4 leukemia) was greater than 100 µM and the TGI (ACHN renal) was greater than 100 µM.
In the case of Cc1c(Cl)ccc2c1NC(=O)C2(O)C1Cc2ccccc2C1=O (configuration not stated), the TGI (HT29 colon) is reported as greater than 100 µM, the TGI (KM12 colon) is reported as greater than 100 µM and the TGI (IGROV1 ovarian) is reported as greater than 100 µM. It also gave a TGI (EKVX NSCLC) greater than 100 µM, a TGI (UO-31 renal) greater than 100 µM and a TGI (SR leukemia) greater than 100 µM. For the same compound, the TGI (A498 renal) was greater than 100 µM, the TGI (MOLT-4 leukemia) was greater than 100 µM and the TGI (ACHN renal) was greater than 100 µM.
Compound COc1ccccc1NC(=O)C1=C(C)NC(C)=C(C(=O)Nc2ccccc2OC)C1c1ccccc1OC has a TGI (HT29 colon) greater than 100 µM, a TGI (KM12 colon) greater than 100 µM and a TGI (IGROV1 ovarian) greater than 100 µM. The TGI (EKVX NSCLC) was greater than 100 µM, the TGI (UO-31 renal) was greater than 100 µM and the TGI (SR leukemia) was greater than 100 µM. The TGI (A498 renal) was greater than 100 µM, the TGI (MOLT-4 leukemia) was greater than 100 µM and the TGI (ACHN renal) was greater than 100 µM.
CC1C(=O)N(C)C2(CO)C(=O)O[C@H](C)C12O (some centres not stated) gave a TGI (HT29 colon) greater than 100 µM, a TGI (KM12 colon) greater than 100 µM and a TGI (IGROV1 ovarian) greater than 100 µM. The TGI (EKVX NSCLC) was greater than 100 µM, the TGI (UO-31 renal) was greater than 100 µM and the TGI (SR leukemia) was greater than 100 µM. For the same compound, the TGI (MOLT-4 leukemia) was greater than 100 µM.
